According to patent publication US11793849B2, “Method of Chinese herbal medicine extract used for treating multiple diseases caused by drug resistant bacteria infection” (priority 2016, dated 2023):
In brackets after ≈: the same amount, converted by molar mass. Like-named read-outs stand apart in the source and are kept apart here.

Test system: MDRAB
Experiment: MIC determination, microdilution broth method
Type: cell-based, Acinetobacter baumannii
Settings: Acinetobacter baumannii
Method: Determination methods of a Minimal Inhibitory Concentration (MIC) and a Minimum Bactericidal Concentration (MBC) of a test product: the MIC and the MBC of the Pithecellobium clypearia Benth water or ethanol extract to the MDRAB are determined by a microdilution broth method. And it is operated by referring to the microdilution broth method recommended by National Committee for Clinical Laboratory Standards (NCCLS).

Compound: C[C@H]1COc2c(N3CCN(C)CC3)c(F)cc3c(=O)c(C(=O)O)cn1c23 [LVX, Levofloxacin]
- MIC (strain A1, EA=60% ethanol extract, read-out: MIC): 0.5 µg/mL (≈ 1.38 µM)
- MIC (strain A1, EA=95% ethanol extract, read-out: MIC): 0.5 µg/mL (≈ 1.38 µM)
- MIC (strain A1, EA=P. clypearia 95% ethanol extract, read-out: single-use MIC): 0.5 µg/mL (≈ 1.38 µM)
- MIC (strain A1, single use, EA=10% ethanol extract, read-out: MIC): 0.5 µg/mL (≈ 1.38 µM)
- MIC (strain A1, single use, EA=water extract, read-out: MIC): 0.5 µg/mL (≈ 1.38 µM)
- MIC (strain A2, EA=60% ethanol extract, read-out: MIC): 16 µg/mL (≈ 44.3 µM)
- MIC (strain A2, EA=95% ethanol extract, read-out: MIC): 16 µg/mL (≈ 44.3 µM)
- MIC (strain A2, EA=P. clypearia 95% ethanol extract, read-out: single-use MIC): 16 µg/mL (≈ 44.3 µM)
- MIC (strain A2, single use, EA=10% ethanol extract, read-out: MIC): 16 µg/mL (≈ 44.3 µM)
- MIC (strain A2, single use, EA=water extract, read-out: MIC): 16 µg/mL (≈ 44.3 µM)
- MIC (strain A3, EA=60% ethanol extract, read-out: MIC): 4 µg/mL (≈ 11.1 µM)
- MIC (strain A3, EA=95% ethanol extract, read-out: MIC): 4 µg/mL (≈ 11.1 µM)
- MIC (strain A3, EA=P. clypearia 95% ethanol extract, read-out: single-use MIC): 16 µg/mL (≈ 44.3 µM)
- MIC (strain A3, single use, EA=10% ethanol extract, read-out: MIC): 4 µg/mL (≈ 11.1 µM)
- MIC (strain A4, EA=60% ethanol extract, read-out: MIC): 0.5 µg/mL (≈ 1.38 µM)
- MIC (strain A4, EA=95% ethanol extract, read-out: MIC): 0.5 µg/mL (≈ 1.38 µM)
- MIC (strain A4, EA=P. clypearia 95% ethanol extract, read-out: single-use MIC): 0.5 µg/mL (≈ 1.38 µM)
- MIC (strain A4, single use, EA=10% ethanol extract, read-out: MIC): 0.5 µg/mL (≈ 1.38 µM)
- MIC (strain A4, single use, EA=water extract, read-out: MIC): 0.5 µg/mL (≈ 1.38 µM)
- MIC (strain A5, EA=60% ethanol extract, read-out: MIC): 4 µg/mL (≈ 11.1 µM)
- MIC (strain A5, EA=95% ethanol extract, read-out: MIC): 4 µg/mL (≈ 11.1 µM)
- MIC (strain A5, single use, EA=10% ethanol extract, read-out: MIC): 4 µg/mL (≈ 11.1 µM)
- MIC (strain A5, single use, EA=water extract, read-out: MIC): 4 µg/mL (≈ 11.1 µM)
- MIC (strain A6, EA=60% ethanol extract, read-out: MIC): 8 µg/mL (≈ 22.1 µM)
- MIC (strain A6, EA=95% ethanol extract, read-out: MIC): 8 µg/mL (≈ 22.1 µM)
- MIC (strain A6, EA=P. clypearia 95% ethanol extract, read-out: single-use MIC): 8 µg/mL (≈ 22.1 µM)
- MIC (strain A6, single use, EA=10% ethanol extract, read-out: MIC): 8 µg/mL (≈ 22.1 µM)
- MIC (strain A6, single use, EA=water extract, read-out: MIC): 8 µg/mL (≈ 22.1 µM)
- MIC (strain A7, EA=60% ethanol extract, read-out: MIC): 8 µg/mL (≈ 22.1 µM)
- MIC (strain A7, EA=95% ethanol extract, read-out: MIC): 8 µg/mL (≈ 22.1 µM)
- MIC (strain A7, EA=P. clypearia 95% ethanol extract, read-out: single-use MIC): 8 µg/mL (≈ 22.1 µM)
- MIC (strain A7, single use, EA=10% ethanol extract, read-out: MIC): 8 µg/mL (≈ 22.1 µM)
- MIC (strain A7, single use, EA=water extract, read-out: MIC): 8 µg/mL (≈ 22.1 µM)
- MIC (strain A8, EA=60% ethanol extract, read-out: MIC): 4 µg/mL (≈ 11.1 µM)
- MIC (strain A8, EA=95% ethanol extract, read-out: MIC): 4 µg/mL (≈ 11.1 µM)
- MIC (strain A8, EA=P. clypearia 95% ethanol extract, read-out: single-use MIC): 4 µg/mL (≈ 11.1 µM)
- MIC (strain A8, single use, EA=10% ethanol extract, read-out: MIC): 4 µg/mL (≈ 11.1 µM)
- MIC (strain A8, single use, EA=water extract, read-out: MIC): 4 µg/mL (≈ 11.1 µM)
- MIC (strain A9, EA=60% ethanol extract, read-out: MIC): 4 µg/mL (≈ 11.1 µM)
- MIC (strain A9, EA=95% ethanol extract, read-out: MIC): 4 µg/mL (≈ 11.1 µM)
- MIC (strain A9, EA=P. clypearia 95% ethanol extract, read-out: single-use MIC): 4 µg/mL (≈ 11.1 µM)
- MIC (strain A9, single use, EA=10% ethanol extract, read-out: MIC): 4 µg/mL (≈ 11.1 µM)
- MIC (strain A9, single use, EA=water extract, read-out: MIC): 4 µg/mL (≈ 11.1 µM)
- MIC (strain A10, EA=60% ethanol extract, read-out: MIC): 32 µg/mL (≈ 88.6 µM)
- MIC (strain A10, EA=95% ethanol extract, read-out: MIC): 32 µg/mL (≈ 88.6 µM)
- MIC (strain A10, EA=P. clypearia 95% ethanol extract, read-out: single-use MIC): 32 µg/mL (≈ 88.6 µM)
- MIC (strain A10, single use, EA=10% ethanol extract, read-out: MIC): 32 µg/mL (≈ 88.6 µM)
- MIC (strain A10, single use, EA=water extract, read-out: MIC): 32 µg/mL (≈ 88.6 µM)
- MIC (strain A11, EA=60% ethanol extract, read-out: MIC): 4 µg/mL (≈ 11.1 µM)
- MIC (strain A11, EA=95% ethanol extract, read-out: MIC): 4 µg/mL (≈ 11.1 µM)
- MIC (strain A11, EA=P. clypearia 95% ethanol extract, read-out: single-use MIC): 4 µg/mL (≈ 11.1 µM)
- MIC (strain A11, single use, EA=10% ethanol extract, read-out: MIC): 4 µg/mL (≈ 11.1 µM)
- MIC (strain A11, single use, EA=water extract, read-out: MIC): 4 µg/mL (≈ 11.1 µM)
- MIC (strain A12, EA=60% ethanol extract, read-out: MIC): 32 µg/mL (≈ 88.6 µM)
- MIC (strain A12, EA=95% ethanol extract, read-out: MIC): 32 µg/mL (≈ 88.6 µM)
- MIC (strain A12, EA=P. clypearia 95% ethanol extract, read-out: single-use MIC): 32 µg/mL (≈ 88.6 µM)
- MIC (strain A12, single use, EA=10% ethanol extract, read-out: MIC): 32 µg/mL (≈ 88.6 µM)
